Experimental data published in patent US20080221548A1, “Eradication of Pigmentation and Scar Tissue” (priority 2005, published 2008).

How the values were obtained:
[1] = Experiment 1: removal of tattoo pigmentation with different solutions while puncturing the skin; assay type: in vivo, pig
Procedure: A number of tattoos were applied to the skin of a pig. Each of the tattoos was a square having dimensions approximately 1 cm×1 cm filled with a solid blue-grey color. […] FIG. 3 is a reproduction of a photograph taken 14 days after four of these tattooed areas were treated according to the method of the invention using different types of solution. Square 1 was treated using distilled water and essentially no color reduction was observed. Square 2 was treated using a 2% aqueous solution of salicylic acid. […] Square 3 was treated using a solution containing 17% EDTA.

[2] = Experiment 2: treatment of tattooed squares by skin puncturing with salicylic acid rinse; assay type: in vivo, pig; details: 5% aqueous solution of salicylic acid, 10 cc/cm^2, three minutes puncturing, five squares; eighteen days later
Procedure: A number of tattoos were applied to the skin of a pig. Each of the tattoos was a square having dimensions approximately 1 cm×1 cm filled with a solid blue-grey color. Two months after the tattoos were applied each of the five squares labeled 1 to 5 on the photograph shown in FIG. 4A was treated according to the method of the invention. The treatment for each square consisted of repeatedly puncturing the skin with the device described hereinabove for three minutes. As the machine was operated, the needles and skin surface were cyclically rinsed with a 5% aqueous solution of salicylic acid. A total of 10 cc of solution was used for each square (i.e. 10 cc/cm^2). Following this initial treatment no further treatment was applied to these five locations.

[3] = Experiment 3: treatment of a pigmented area of skin surrounding a scab by skin puncturing with salicylic acid rinse; assay type: in vivo; details: 5% aqueous solution of salicylic acid, ~10 cc/cm^2, ten minutes puncturing; fourteen days after treatment
Procedure: In FIG. 5A is shown a photograph of an area of skin on which there is a reddish-purple pigmented area surrounding brown colored scab. The pigmented area surrounding the scab was treated using the method described above by repeatedly puncturing the skin for ten minutes. During the treatment 10 cc of a 5% aqueous solution of salicylic acid (˜10 cc/cm^2) was used to clean the needles and surface of the skin. A dry bandage was placed over the treated area for a few days to keep the site clean, but no medication was applied. After this the skin was left unattended. […] Although embodiments of the invention have been described by way of illustration, it will be understood that the invention may be carried out with many variations, modifications, and adaptations, without departing from its spirit or exceeding the scope of the claims.

In the case of `O=C(O)CN(CCN(CC(=O)O)CC(=O)O)CC(=O)O` [EDTA], the scar after treatment ([1]; solution containing 17% EDTA, square 3) is reported as “did not vanish” and the color reduction ([1]; solution containing 17% EDTA, tattoo square 3, 14 days after treatment) is reported as 60%.
For `OO` [H2O2], the reduction in color ([1]; H2O2, tattoo square 4, 14 days after treatment) was 40-60%.
With `O=C(O)c1ccccc1O` [salicylic acid] the color reduction ([1]; 2% aqueous solution of salicylic acid, 1 cm x 1 cm blue-grey tattoo square 2, 14 days after treatment plus a few days) was “approximately 90%”, the scar after treatment ([1]; 2% aqueous solution of salicylic acid, square 2, a few days after the 14-day photograph) was “vanished leaving no trace” and the “tattoo color after treatment” value [2] was “all of the original blue-grey color has disappeared”. For the same compound, the “color of the pigmented area after treatment” value [3] was “changed to a color slightly greyer than the natural skin color” and the “scar tissue after treatment” value [3] was “gone”.
